Source: publication PMC13129453, “Targeting the US21 viroporin of human cytomegalovirus by calcium channel blockers as a new antiviral strategy” (Current Research in Microbial Sciences, 2026)
Where “and” joins values, the source holds several entries; their conditions need not be identical. Identical values can stand only once. Like-named read-outs stand apart in the source and are kept apart here.

Tests used:
HCMV TRwt [1] = assay: Focus-forming reduction assay (FFRA), HCMV TRwt; format: cell-based, Human cytomegalovirus; details: for EC50 / EC90: Human betaherpesvirus 5, hT-HFF, FFRA, 96 h p.i.; for SI: hT-HFF, ratio between CC50 and EC50
Description: (§1) The antiviral activity of CCBs was evaluated against VR1814 and TRwt by means of the focus-forming reduction assay (FFRA) procedure. Briefly, hT-HFFs were seeded on 96-well plates (20,000 cells/well) and, after 24 h, treated with different concentrations of compounds (maximum concentration 20 μM, or 100 μM for felodipine) 1 h prior to and during viral infection (50 PFU/well). Control HCMV-infected cells were exposed to vehicle DMSO at 0.04%, or 0.2% for felodipine). After virus adsorption (2 h at 37 °C), virus inoculum was removed and infected cell cultures were incubated in medium containing the corresponding compounds plus 1.2% (w/v) methylcellulose (Merck) and 5% (v/v) FBS. At 96 h post infection (p.i.), cell monolayers were fixed and subjected to indirect immunoperoxidase staining (IPA) with the HCMV IEA mAb (diluted 1:150). Viral foci were microscopically counted, and the mean plaque counts for each drug concentration were expressed as a percentage of the mean plaque counts of control virus (DMSO). GraphPad Prism software was used to determine the concentration of compounds producing 50 and 90% reductions in viral titers (EC50 and EC90).

HCMV TRUS21stop = assay: microbe, parasite or virus in culture; format: cell-based, Human cytomegalovirus
HCMV VR1814 [2] = assay: Focus-forming reduction assay (FFRA), HCMV VR1814; format: cell-based, Human cytomegalovirus; details: hT-HFF; for EC50 / EC90: Human betaherpesvirus 5, VR1814, FFRA, 96 h p.i.; for SI: VR1814, ratio between CC50 and EC50
Description: as §1

[3] = Cell cytotoxicity assay (MTT), hT-HFFs; format: cell-based; details: human; for CC50 at 5 days: hT-HFFs, hT-HFF, MTT, five days of treatment
Description: (§2) The effect of test compounds on cell viability was determined in hT-HFFs, HMVECs and T-REx-U2OS-US21-HA cells seeded in p96-well (12,000 cells/well). After 24 h, cells were treated with compounds at concentrations starting from 300 μM and then serially diluted in culture medium, or with DMSO alone starting from 0.6% v/v as the vehicle control. For cell viability of drug combination studies, the control with DMSO was from 0.07%.

[4] = Cell cytotoxicity assay (MTT), HMVECs; format: cell-based; details: human; for CC50 at 5 days: HMVECs, HMVEC, MTT, five days of treatment
Description: as §2

pUS21 = molecular target: T1, pUS21 (Human cytomegalovirus, UniProt P09723); format: cell-based
T1 construct: expressed in transfected cells; host or cells: T-REx-U2OS-US21-HA (human osteosarcoma U2OS, stably transfected, tetracycline-inducible)
Description: Calcium measurement was determined applying the Ca^2+ add back protocol as previously described ([Luganini et al., 2023]). Briefly, non-induced (NI) or induced (I) T-REx-U2OS-US21-HA cell lines for 48 h with tetracycline, plated at a density of 5000 cells/cm^2 on glass coverslips, were loaded (45 min at 37 °C) with 2 μM Fura-2 AM (Invitrogen, Waltham, MA, USA) and excited at two alternating wavelengths: 340 and 380 nm. Fluorescence emission was captured using a Nikon Eclipse TE-2000S inverted microscope equipped with the MetaFluor Imaging System (Molecular Devices, San Jose, CA, USA). Ratiometric cytosolic Ca^2+ ([Ca^2+]c) quantification was expressed as the ratio (R) of fluorescence emitted at 510 nm for the two excitation wavelengths. Images were acquired every 3 s. Ca^2+ imaging analysis was conducted by peak amplitude quantification using Clampfit 11.1 (Axon pClamp, Molecular Devices). Responses with a ΔR340/380 > 0.05 were taken in account. To assess the ER Ca^2+ content in T-REx-U2OS-US21-HA NI or I cells, depletion of the ER Ca^2+ pool was triggered using IP3mix in the absence of extracellular Ca^2+ (0 Ca^2+). IP3mix consisted of thapsigargin (2 μM), histamine (100 μM), and ATP (100 μM). The experiments were performed in acute treatment in presence of CCBs or DMSO, as control at 0.01%.

HCMV TRwt [5] = assay: Focus-forming reduction assay (FFRA), HCMV TRwt; format: cell-based, Human cytomegalovirus
HCMV VR1814 [6] = assay: Focus-forming reduction assay (FFRA), HCMV VR1814; format: cell-based, Human cytomegalovirus
[7] = Human betaherpesvirus 5, hT-HFF, TRUS21stop, FFRA, 96 h p.i., read-out: EC50
[8] = Human betaherpesvirus 5, hT-HFF, TRUS21stop, FFRA, 96 h p.i., read-out: EC90
[9] = hT-HFF, TRUS21stop, ratio between CC50 and EC50
[10] = HMVEC, TRwt, ratio between CC50 and EC50
[11] = Human betaherpesvirus 5, HMVEC, TRwt, FFRA, 96 h p.i., read-out: EC50
[12] = Human betaherpesvirus 5, HMVEC, TRwt, FFRA, 96 h p.i., read-out: EC90
[13] = HMVEC, VR1814, ratio between CC50 and EC50
[14] = Human betaherpesvirus 5, HMVEC, VR1814, FFRA, 96 h p.i., read-out: EC50
[15] = Human betaherpesvirus 5, HMVEC, VR1814, FFRA, 96 h p.i., read-out: EC90
[16] = Human betaherpesvirus 5, HMVEC, 96 h

T1 sequence (P09723 whole entry): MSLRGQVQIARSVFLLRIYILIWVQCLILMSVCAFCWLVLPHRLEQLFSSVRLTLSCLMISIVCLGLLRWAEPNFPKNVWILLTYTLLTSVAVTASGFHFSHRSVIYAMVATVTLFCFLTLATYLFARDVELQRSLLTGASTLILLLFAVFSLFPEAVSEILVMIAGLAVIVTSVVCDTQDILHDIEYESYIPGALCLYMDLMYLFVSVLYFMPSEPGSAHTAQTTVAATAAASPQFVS

SMILES	EC50 (HCMV TRwt [1])	EC90 (HCMV TRwt [1])	SI (HCMV TRwt [1])	EC50 (HCMV TRUS21stop; [7])	EC90 (HCMV TRUS21stop; [8])	SI (HCMV TRUS21stop; [9])	EC50 (HCMV VR1814 [2])	EC90 (HCMV VR1814 [2])	SI (HCMV VR1814 [2])	CC50 at 5 days [3]	CC50 at 5 days [4]	Ca2+-conducting activity of pUS21 (Ca2+ release from the ER after IP3mix) (pUS21)	SI (HCMV TRwt [5]; [10])	EC50 (HCMV TRwt [5]; [11])	EC90 (HCMV TRwt [5]; [12])	SI (HCMV VR1814 [6]; [13])	EC50 (HCMV VR1814 [6]; [14])	EC90 (HCMV VR1814 [6]; [15])	further results
CC1=C(C(=O)OC(C)C)C(c2cccc([N+](=O)[O-])c2)C(C(=O)OC2CN(C(c3ccccc3)c3ccccc3)C2)=C(N)N1 (stereo not shown) [Azelnidipine, azelnidipine]	1.53 ± 0.32 µM	12.1 ± 0.27 µM	125.50	5.46 ± 0.17 µM	19.36 ± 0.06 µM	35.16	2.96 ± 0.53 µM	14.7 ± 0.39 µM	64.87	192 ± 20.5 µM	341 ± 20.1 µM	can hamper the Ca^2+-mobilizing activity of pUS21	160.87	2120 ± 140 nM	9.53 ± 0.76 µM	110.37	3.09 ± 0.46 µM	19 ± 0.27 µM	–
CC1=C(C(=O)OCCN(Cc2ccccc2)c2ccccc2)C(c2cccc([N+](=O)[O-])c2)C(P2(=O)OCC(C)(C)CO2)=C(C)N1 (stereo not shown) [Efonidipine, efonidipine]	3.18 ± 0.07 µM	14.2 ± 1.67 µM	106.82	7.11 ± 0.05 µM	> 20 µM	47.77	3.04 ± 0.23 µM	13.6 ± 2.46 µM	111.74	340 ± 20.1 µM	295 ± 11 µM	can hamper the Ca^2+-mobilizing activity of pUS21	83.21	3550 ± 130 nM	6.58 ± 0.91 µM	82.28	3.59 ± 0.67 µM	19.5 ± 0.72 µM	–
COC(=O)C1=C(C)NC(C)=C(C(=O)OC(C)(C)CN(C)CCC(c2ccccc2)c2ccccc2)C1c1cccc([N+](=O)[O-])c1 (stereo not shown) [Lercanidipine, lercanidipine]	3.08 ± 0.28 µM	12.7 ± 1.6 µM	41.08	7.6 ± 0.11 µM	19.9 ± 0.5 µM	16.65	3.12 ± 0.43 µM	12.7 ± 1.66 µM	40.55	127 ± 18.8 µM	286 ± 19.1 µM	can hamper the Ca^2+-mobilizing activity of pUS21	86.09	3320 ± 380 nM	5.9 ± 0.11 µM	105.86	2.7 ± 0.54 µM	14.5 ± 0.19 µM	–
CC(C)Nc1nc2cc(Cl)c(Cl)cc2n1[C@H]1O[C@@H](CO)[C@H](O)[C@@H]1O [MBV, Maribavir]	–	–	–	–	–	–	–	–	–	–	–	–	–	4740 nM	–	–	–	–	–
COC(=O)C1=C(C)NC(C)=C(C(=O)OCCCN2CCC(c3ccccc3)(c3ccccc3)CC2)[C@H]1c1cccc([N+](=O)[O-])c1 [Niguldipine, niguldipine]	–	–	–	–	–	–	–	–	–	–	–	can hamper the Ca^2+-mobilizing activity of pUS21	–	–	–	–	–	–	SI (HCMV TRUS21stop): 68.70; EC50 (HCMV TRUS21stop; Human betaherpesvirus 5, 96 h): 3.51 ± 0.22 µM; EC90 (HCMV TRUS21stop; Human betaherpesvirus 5, 96 h): 13 ± 0.63 µM; CC50 [3]: 241 ± 23.9 µM; CC50 [4]: 205 ± 23.3 µM; SI (HCMV TRwt [5]): 191.39 and 178.40; EC50 (HCMV TRwt [5]; Human betaherpesvirus 5, 96 h): 1260 ± 310 nM; EC90 (HCMV TRwt [5]; Human betaherpesvirus 5, 96 h): 7.33 ± 2.54 µM; EC50 (HCMV TRwt [5]; [16]): 1150 ± 290 nM; EC90 (HCMV TRwt [5]; [16]): 7.24 ± 0.59 µM; SI (HCMV VR1814 [6]): 67.93 and 76.31; EC50 (HCMV VR1814 [6]; Human betaherpesvirus 5, 96 h): 3.16 ± 0.64 µM; EC90 (HCMV VR1814 [6]; Human betaherpesvirus 5, 96 h): 15 ± 0.48 µM; EC50 (HCMV VR1814 [6]; [16]): 3.02 ± 0.16 µM; EC90 (HCMV VR1814 [6]; [16]): 12.7 ± 0.16 µM
CCOC(=O)C1=C(C)NC(C)=C(C(=O)OC)C1c1cccc(Cl)c1Cl (stereo not shown) [felodipine]	19.4 µM	–	–	19.4 µM	–	–	–	–	–	–	–	–	–	–	–	–	–	–	–
